In PMC4851326, “Pharmacologic Comparison of Clinical Neutral Endopeptidase Inhibitors in a Rat Model of Acute Secretory Diarrhea” (The Journal of Pharmacology and Experimental Therapeutics, 2016):
Each block holds one compound with its values, some of them ahead of it.

What was measured:
[1] = target: T1, NEP (Homo sapiens, UniProt P08473); assay: Purified peptidase assay, NEP; type: biochemical
T1 construct: purchased R&D Systems (Minneapolis, MN)
Method: Purified recombinant human enzymes were purchased from R&D Systems (Minneapolis, MN). […] Each substrate was diluted to 100 μM in the assay buffer recommended for each enzyme by the supplier. […] To these, 5 μl of diluted enzyme was added, followed by 10 μl of the quenched peptide substrate. The plates were incubated at 37°C until at least 10% substrate turnover or 5 μM product had formed. Fluorescence was measured using a Tecan Safire II (Excitation 320 nm/Emission 420 nm). Each plate included a standard curve of reaction product and positive (no enzyme) and negative (dimethyl sulfoxide vehicle) controls. Dose-response data were plotted and inhibition values (IC50) determined by linear regression analysis using GraphPad Prism (GraphPad Software, La Jolla, CA).

[2] = target: T2, NEP (Rattus norvegicus, UniProt P07861); assay: NEP enzyme activity in tissues after oral treatment; type: in vivo; conditions: normal rats; for Relative NEP inhibition, duodenum / Relative NEP inhibition, jejunum / Relative NEP inhibition, kidney / Relative NEP inhibition, lung: vs vehicle
T2 construct: NEP enzyme activity was measured in tissue homogenates; from tissue; host or cells: Wistar rat kidney, lung, duodenum, jejunum homogenates
T2 sequence (P07861 1-750): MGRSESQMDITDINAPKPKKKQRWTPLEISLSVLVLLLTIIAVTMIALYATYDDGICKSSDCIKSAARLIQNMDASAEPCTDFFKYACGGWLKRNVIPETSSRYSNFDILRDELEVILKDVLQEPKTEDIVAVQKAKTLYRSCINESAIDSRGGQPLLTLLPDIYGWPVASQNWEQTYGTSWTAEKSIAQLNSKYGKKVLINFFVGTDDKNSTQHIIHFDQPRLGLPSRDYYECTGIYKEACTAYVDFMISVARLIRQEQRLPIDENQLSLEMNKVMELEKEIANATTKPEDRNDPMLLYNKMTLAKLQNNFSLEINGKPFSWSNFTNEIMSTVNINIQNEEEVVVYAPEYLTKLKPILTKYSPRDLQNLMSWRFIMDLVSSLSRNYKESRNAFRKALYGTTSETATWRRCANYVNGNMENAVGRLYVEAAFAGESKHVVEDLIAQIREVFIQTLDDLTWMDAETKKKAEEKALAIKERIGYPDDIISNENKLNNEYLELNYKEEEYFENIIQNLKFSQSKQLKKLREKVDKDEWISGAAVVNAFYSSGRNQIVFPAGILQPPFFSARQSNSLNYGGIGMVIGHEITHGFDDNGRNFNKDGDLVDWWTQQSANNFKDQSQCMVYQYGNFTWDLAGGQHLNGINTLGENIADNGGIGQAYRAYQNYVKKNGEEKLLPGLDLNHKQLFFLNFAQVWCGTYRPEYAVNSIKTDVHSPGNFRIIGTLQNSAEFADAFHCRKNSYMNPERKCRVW
Method: Four or five 2-mm Zirconia beads (Biospec, Bartlesville, OK) were added to fresh weighed tissue specimens (50–250 mg). Assay buffer consisting of 50 mM Tris-HCl (pH 7.4), 200 mM NaCl, and 0.05% TritonX-100 was added (4 μl/mg), and the sample was homogenized for 1 minute using a bead beater (Biospec). Stored frozen homogenates were thawed at room temperature and centrifuged 10 minutes at 18,000g, and the protein concentration was determined for each supernatant. […] NEP substrate 2Abz-dArg-Gly-Leu-C2-Dnp (American Peptide, Sunnyvale, CA) was prepared at 1 mM in 20% acetonitrile/water and diluted to 100 μM in assay buffer, and 10 μl was dispensed to homogenate-containing wells. […] Kinetic data were plotted to determine the rate of product formation by linear regression with interpolation against a standard curve, and the rate was normalized to protein concentration.

[3] = system: intestinal motility; assay: Charcoal meal model of intestinal motility; type: in vivo, rat; conditions: 30 minutes before charcoal meal, distance traveled in 20 minutes
Method: Rats were fasted for 18 hours before the experiment, with free access to water. Animals were weighed, and vehicle or compounds were administered by oral gavage. […] After 30 minutes, each animal received standard charcoal meal (10% suspension of activated charcoal in 5% gum arabic) by oral gavage (5 ml/kg). Animals were given access to food within 1 minute and sacrificed 20 minutes after the charcoal meal. The intestines were carefully removed. Motility was calculated as the measured distance traveled by the charcoal as a percentage of total length from pyloric sphincter to ileocecal junction.

[4] = system: castor oil–induced diarrhea; assay: Castor oil–induced diarrhea model; type: in vivo, rat
Method: Experiments were performed with 6-to-7-week-old male Wistar rats obtained from Charles River Laboratories (Wilmington, MA). All animals were housed in Saint Louis University facilities under controlled conditions of temperature, humidity, and a 12-hour light/dark cycle. They were maintained on standard rodent chow with free access to water. Animal care and all procedures were performed in accordance with the National Institutes of Health Guide for the Care and Use of Laboratory Animals and approved by the university’s institutional animal care and use committee.
Animals were weighed and individually housed in metabolic cages containing white paper underneath to collect feces. Test compounds or vehicles were administered by oral gavage (5 ml/kg), and then at indicated times, 10 ml/kg body weight of 100% castor oil was administered by oral gavage to induce diarrhea. Animals had access to food within 5 minutes. Stool weight was recorded starting 15 minutes after castor oil administration and repeated every 15 minutes up to 4 hours. […] After 4 hours, animals were euthanized with CO2, and blood and tissues were collected for analyses.

[5] = 1 h after single oral dose (Race 100, Candox 150, Sac 100, UK 100 mg/kg)
[6] = 5 h after single oral dose (Race 100, Candox 150, Sac 100, UK 100 mg/kg)

T1 sequence (P08473 whole entry): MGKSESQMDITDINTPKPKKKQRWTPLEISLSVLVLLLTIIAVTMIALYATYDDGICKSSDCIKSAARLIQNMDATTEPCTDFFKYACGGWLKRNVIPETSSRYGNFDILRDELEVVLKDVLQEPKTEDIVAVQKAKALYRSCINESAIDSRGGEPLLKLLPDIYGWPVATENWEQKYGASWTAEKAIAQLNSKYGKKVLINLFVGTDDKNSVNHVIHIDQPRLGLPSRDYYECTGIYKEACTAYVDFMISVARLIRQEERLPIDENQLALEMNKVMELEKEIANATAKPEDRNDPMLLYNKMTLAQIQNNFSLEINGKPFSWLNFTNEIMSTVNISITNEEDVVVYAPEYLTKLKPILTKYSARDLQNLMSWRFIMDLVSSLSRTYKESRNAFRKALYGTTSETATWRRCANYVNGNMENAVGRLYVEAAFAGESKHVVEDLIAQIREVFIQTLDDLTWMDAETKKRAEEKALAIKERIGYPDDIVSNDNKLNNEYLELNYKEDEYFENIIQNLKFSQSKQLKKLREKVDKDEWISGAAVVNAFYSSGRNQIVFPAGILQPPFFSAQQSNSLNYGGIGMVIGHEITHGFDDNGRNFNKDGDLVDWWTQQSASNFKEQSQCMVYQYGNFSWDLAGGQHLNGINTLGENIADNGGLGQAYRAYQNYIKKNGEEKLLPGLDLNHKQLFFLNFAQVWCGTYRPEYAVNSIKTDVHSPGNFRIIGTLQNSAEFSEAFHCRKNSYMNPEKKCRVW

- IC50 ([1]; recombinant purified human enzyme, for prodrugs the active form was tested): < 100 nM
- NEP selectivity over the other peptidases ([1]; versus panel of ACE, ECE-1, ECE-2, IDE, APN, PSA): > 60 fold
SMILES: COCCOC[C@H](CC1(C(=O)N[C@H]2CC[C@@H](C(=O)O)CC2)CCCC1)C(=O)O [Candoxatrilat, candoxatrilat]

SMILES: CC(=O)SCC(Cc1ccccc1)C(=O)NCC(=O)OCc1ccccc1 (centres unmarked) [Racecadotril]
- Relative NEP inhibition, duodenum [2, 5]: 98%
- Relative NEP inhibition, jejunum [2, 5]: 90%
- Relative NEP inhibition, kidney [2, 5]: 56%
- Relative NEP inhibition, lung [2, 5]: 75%
- NEP enzyme activity in duodenum and jejunum ([2]; 1 hour after single oral 100 mg/kg dose (Fig. 3A, B)): barely detectable levels
- Relative NEP inhibition, duodenum [2, 6]: 85%
- Relative NEP inhibition, jejunum [2, 6]: 32%
- Relative NEP inhibition, kidney [2, 6]: 39%
- Relative NEP inhibition, lung [2, 6]: 59%
- NEP inhibition in lung and kidney tissue after 24 hours ([2]; 24 hours after single oral 100 mg/kg dose (Fig. 3C, D)): returned to normal
- Effect on intestinal transit (charcoal meal test) ([3]; oral, dose not given (Fig. 5)): no effect
- Stool output, 150 or 240 minutes predosing ([4]; 100 mg/kg oral 150 or 240 minutes before castor oil (Fig. 4B, 4C)): Neither drug was effective
- Incidence of diarrhea ([4]; dose-response study (Fig. 2A), 30 minutes before castor oil, sacubitril at highest tested dose, racecadotril 100 mg/kg): 100%
- Cumulative stool output over 4 hours ([4]; single oral dose 30 minutes before castor oil, fasted rats, vs vehicle (Fig. 1)): significantly reduced
- Stool output, dose-response studies ([4]; single oral treatment with varying doses (racecadotril 100 mg/kg) 30 minutes before castor oil (Fig. 2A, 2C)): significantly reduced stool output

SMILES: CN(C)C(=O)C(CCN1CCC(O)(c2ccc(Cl)cc2)CC1)(c1ccccc1)c1ccccc1 [loperamide]
- Effect on intestinal transit (charcoal meal test) ([3]; oral, dose not given (Fig. 5)): greatly slowed transit

- Effect on intestinal transit (charcoal meal test) ([3]; 30 mg/kg oral): no effect
- Effect on intestinal transit (charcoal meal test) ([3]; 100 mg/kg oral): significant but very modest effect
SMILES: CCOC(=O)[C@H](C)C[C@@H](Cc1ccc(-c2ccccc2)cc1)NC(=O)CCC(=O)O [Sacubitril, 4-(((2S,4R)-1-([1,1′-biphenyl]-4-yl)-5-ethoxy-4-methyl-5-oxopentan-2-yl)amino)-4-oxobutanoic acid]
